The structures appear in SMILES notation. pIC50: −log10 of the molar value.

The test concerns the target Tyrosine-protein kinase JAK3 (Homo sapiens) (UniProt P52333). Kind of test: JAK3 kinase inhibitors, dose response, biochemical, purified enzyme (AID 1224891). To be noted: recombinant JAK3 kinase domain, 32P-ATP radiometric.

Tyrosine-protein kinase JAK3 (Homo sapiens), sequence (P52333 whole entry, looked up, the tested form may be a part): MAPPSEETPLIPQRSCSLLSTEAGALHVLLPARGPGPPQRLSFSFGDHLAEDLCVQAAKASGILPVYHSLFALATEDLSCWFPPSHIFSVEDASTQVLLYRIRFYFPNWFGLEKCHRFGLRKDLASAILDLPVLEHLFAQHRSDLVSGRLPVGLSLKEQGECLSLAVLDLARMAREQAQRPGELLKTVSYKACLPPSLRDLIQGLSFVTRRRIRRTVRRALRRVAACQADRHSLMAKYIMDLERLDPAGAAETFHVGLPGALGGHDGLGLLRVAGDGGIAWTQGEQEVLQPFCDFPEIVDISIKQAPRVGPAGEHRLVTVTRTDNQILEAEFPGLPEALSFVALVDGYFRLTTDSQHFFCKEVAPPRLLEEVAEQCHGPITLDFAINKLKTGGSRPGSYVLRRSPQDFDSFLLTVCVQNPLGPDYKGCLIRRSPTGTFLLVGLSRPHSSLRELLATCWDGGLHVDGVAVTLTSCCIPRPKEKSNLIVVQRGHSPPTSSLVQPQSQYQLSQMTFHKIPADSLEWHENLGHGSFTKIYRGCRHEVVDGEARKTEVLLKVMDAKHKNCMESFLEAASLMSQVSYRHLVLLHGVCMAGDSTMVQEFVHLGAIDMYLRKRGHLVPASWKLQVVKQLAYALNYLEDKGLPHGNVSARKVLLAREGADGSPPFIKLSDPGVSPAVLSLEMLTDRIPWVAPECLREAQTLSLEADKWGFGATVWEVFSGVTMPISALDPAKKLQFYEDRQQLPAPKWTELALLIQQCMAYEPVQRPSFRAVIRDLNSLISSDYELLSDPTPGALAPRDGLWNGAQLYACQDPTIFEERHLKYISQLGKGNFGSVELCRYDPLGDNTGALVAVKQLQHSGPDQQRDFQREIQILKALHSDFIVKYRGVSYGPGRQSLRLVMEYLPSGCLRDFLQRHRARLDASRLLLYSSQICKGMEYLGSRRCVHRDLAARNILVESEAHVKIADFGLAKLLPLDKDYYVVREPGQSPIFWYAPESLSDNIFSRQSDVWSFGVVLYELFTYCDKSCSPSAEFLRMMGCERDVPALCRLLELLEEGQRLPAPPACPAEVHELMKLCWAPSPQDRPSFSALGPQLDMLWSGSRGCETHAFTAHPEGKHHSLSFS

As usually defined, the pIC50 is −log10 of the IC50, conventionally taken in molar units. `CCOC(=O)c1c[nH]c2ncnc(-c3cc(NC(=O)CC)ccc3F)c12`: the negative-log IC50 (pIC50) is 5.72.
